Laboratory results from patent US12252481B2, “Anti-viral compounds” (Aligos Therapeutics, Inc., priority 2021, dated 2025).
pEC50, pIC50: −log10 of the molar value. Read-outs that look alike come from different tables or passages of the source.

Assays:
in vitro [1] = conditions: human
[2] = tested on: SARS-CoV-2-GHB-03021/2020; format: cell-based; conditions: read-out: VeroE6 + CP (EC50)
[3] = tested on: human beta-coronavirus OC43; test: OC43 coronavirus antiviral assay in HeLa cells (cytopathic effect, cell-titer-glo); format: cell-based; conditions: 6 days at 33° C., read-out: EC50 (class)
[4] = tested on: B.1.1.7 lineage SARS-CoV-2; test: microbe, parasite or virus in culture; format: cell-based
SARS-Cov-2 3CLpro = molecular target: T1, SARS-Cov-2 3CLpro (Severe acute respiratory syndrome coronavirus 2, UniProt P0DTD1); test: biochemical
T1 construct: 3CLpro and HRV3C was added using a Multidrop Combi

HRV3C = molecular target: T2, HRV3C (Human rhinovirus 14, UniProt P03303); test: biochemical; design: species or system HRV
T2 construct: 3CLpro and HRV3C was added using a Multidrop Combi

human cathepsin L = molecular target: T3, human cathepsin L (Homo sapiens, UniProt P07711); test: Cathepsin L assay (Z-FR-AMC fluorescence); format: biochemical; conditions: 10 pM human cathepsin L, 30 mins preincubation, Z-FR-AMC 2 μM
T3 construct: purchased R&D Systems
How it was run: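 Human cathepsin L (10 pM) was preincubated 30 min with compound, then reactions were started with Z-FR-AMC substrate (2 μM final). AMC fluorescence (355/460 nm) was read every 2 min over 30 min. IC50 came from a four-parameter curve fit.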

in vitro [5] = conditions: human; remark: listed apart in the source
[6] = tested on: A549-dual_ACE2_TMPRSS2 cells; conditions: read-out: A549-dual_ACE2_TMPRSS2 (CC50); assay medium without virus, MTS, numeric values
Vero E6-eGFP cells = conditions: read-out: VeroE6 + CP (CC50), absence of virus, numeric values
[7] = Cytotoxicity in HeLa cells without OC43 virus (cell-titer-glo); conditions: human
SARS-CoV-2 = conditions: cited from earlier work
3CLpro = 3CLpro (Severe acute respiratory syndrome coronavirus 2, UniProt P0DTD1); conditions: cited from earlier work
[8] = Betacoronavirus 1, OC43, HeLa, 144 h
[9] = Severe acute respiratory syndrome coronavirus 2, 96 h; read-out: A549-dual_ACE2_TMPRSS2 (EC50)
[10] = 3CLpro, 30 mins preincubation, SAMDI-MS, read-out: SARS-Cov-2 IC50 (class)
[11] = HRV3C, 30 mins preincubation, SAMDI-MS, read-out: HRV IC50 (bound)

T3 sequence (P07711 114-333): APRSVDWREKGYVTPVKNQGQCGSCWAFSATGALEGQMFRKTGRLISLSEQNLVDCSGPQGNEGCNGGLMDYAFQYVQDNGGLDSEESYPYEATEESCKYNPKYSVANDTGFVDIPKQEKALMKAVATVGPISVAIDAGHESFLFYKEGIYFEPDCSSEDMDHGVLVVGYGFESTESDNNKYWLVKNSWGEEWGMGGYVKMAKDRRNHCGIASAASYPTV
T2 sequence (P03303 1538-1719): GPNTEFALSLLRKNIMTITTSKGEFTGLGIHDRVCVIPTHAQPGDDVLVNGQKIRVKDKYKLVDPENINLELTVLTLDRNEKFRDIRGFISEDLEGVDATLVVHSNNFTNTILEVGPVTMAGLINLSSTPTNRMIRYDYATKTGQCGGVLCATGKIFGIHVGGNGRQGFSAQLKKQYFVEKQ

| Structure (SMILES) | CC50 (in vitro [1]) | pEC50 [2] | pEC50 [3, 8] | pEC50 [4, 9] | pIC50 (SARS-Cov-2 3CLpro; [10]) | pIC50 (HRV3C; [11]) | pIC50 (human cathepsin L) | CC50 (in vitro [5]) | further results |
| --- | --- | --- | --- | --- | --- | --- | --- | --- | --- |
| Cc1cn(C(C(=O)N2C[C@H]3[C@@H]([C@H]2C(=O)N[C@H](C#N)C[C@@H]2CCNC2=O)[C@H]2C=C[C@@H]3C2)C(C)(C)C)nn1 (stereo partly shown) [Compound 53] | > 10 µM | 6.00 to 7.00 | 5.00 to 6.00 | 5.00 to 6.00 | 6.70 to 7.70 | < 5.00 | ≤ 5.00 | > 10 µM |  |
| [2H]C1=C[C@@H]2C[C@H]1[C@H]1[C@@H]2CN(C(=O)[C@@H](NC(=O)C(F)(F)C(F)(F)F)C(C)(C)C)[C@@H]1C(=O)N[C@H](C#N)C[C@@H]1CCNC1=O [Compound 125] | > 100 µM |  | > 7.00 |  | > 7.70 | < 6.30 |  |  |  |
| CC(C)(C)[C@H](NC(=O)C(F)(F)Cl)C(=O)N1C[C@@H]2[C@H]3C[C@@H]([C@@H]2[C@H]1C(=O)N[C@H](C#N)C[C@@H]1CCNC1=O)[C@H](F)C3 [Compound 134, (1S,3aR,4S,6R,7S,7aR)-2-((S)-2-(2-chloro-2,2-difluoroacetamido)-3,3-dimethylbutanoyl)-N-((S)-1-cyano-2-((S)-2-oxopyrrolidin-3-yl)ethyl)-6-fluorooctahydro-1H-4,7-methanoisoindole-1-carboxamide] | > 100 µM |  | > 7.00 |  | > 7.70 | < 6.30 | ≤ 5.00 |  |  |
| CO[C@H](C(C)C)[C@H](NC(=O)C(F)(F)C(F)(F)F)C(=O)N1C[C@H]2[C@@H]([C@H]1C(=O)N[C@H](C#N)C[C@@H]1CCNC1=O)[C@H]1C=C[C@@H]2C1 [Compound 135] |  |  |  | > 7.00 | > 7.70 | < 6.30 | ≤ 5.00 | > 1 µM |  |
| CC(C)(C)[C@H](NC(=O)C(F)(F)F)C(=O)N1C[C@@H]2[C@@H]3CC[C@@H](C3)[C@@H]2[C@H]1C(=O)N[C@H](C#N)C[C@@H]1CC2(CC2)NC1=O [Example 15, (1S,3aR,4R,7S,7aS)-N-((S)-1-cyano-2-((R)-5-oxo-4-azaspiro[2.4]heptan-6-yl)ethyl)-2-((S)-3,3-dimethyl-2-(2,2,2-trifluoroacetamido)butanoyl)octahydro-1H-4,7-methanoisoindole-1-carboxamide] |  | > 7.00 |  | > 7.00 | > 7.70 | < 5.00 | ≤ 5.00 | > 10 µM |  |
| CC(C)(C)[C@H](NC(=O)C1CC1)C(=O)N1C[C@H]2[C@@H]([C@H]1C(=O)N[C@H](C#N)C[C@@H]1CCNC1=O)[C@H]1C=C[C@@H]2C1 [Example 21, (1R,2S,3S,6R,7S)—N-[(1S)-1-cyano-2-[(3S)-2-oxopyrrolidin-3-yl]ethyl]-4-[(2S)-2-(cyclopropylformamido)-3,3-dimethylbutanoyl]-4-azatricyclo[5.2.1.0^{2,6}]dec-8-ene-3-carboxamide] |  | > 7.00 |  |  | > 7.70 | < 5.00 | ≤ 5.00 |  | pEC50 [3]: > 7.00; pEC50 ([4]; read-out: A549-dual_ACE2_TMPRSS2 (EC50)): > 7.00; CC50 [6]: > 10 µM; CC50 (Vero E6-eGFP cells): > 50 µM; CC50 (HeLa cells): > 100 µM |
| CC(C)(C)[C@H](NC(=O)C(F)(F)F)C(=O)N1C[C@H]2[C@@H]([C@H]1C(=O)N[C@H](C#N)C[C@@H]1CCNC1=O)[C@H]1C=C[C@@H]2C12CC2 [Example 25, (1′R,2′S,3′S,6′R,7′S)—N-[(1S)-1-cyano-2-[(3S)-2-oxopyrrolidin-3-yl]ethyl]-4′-[(2S)-3,3-dimethyl-2-(2,2,2-trifluoroacetamido)butanoyl]-4′-azaspiro[cyclopropane-1,10′-tricyclo[5.2.1.0^{2,6}]decan]-8′-ene-3′-carboxamide] |  | 6.00 to 7.00 | > 7.00 |  |  |  | ≤ 5.00 | > 10 µM | pEC50 ([4]; Severe acute respiratory syndrome coronavirus 2, 96 h, read-out: A549-dual_ACE2_TMPRSS2 (EC50)): 6.00 to 7.00; pIC50 (SARS-Cov-2 3CLpro): > 7.70; pIC50 (HRV3C): < 5.00; CC50 at 6 days [7]: > 100 µM |
| CC(C)(C)[C@H](NC(=O)C(F)(F)F)C(=O)N1C[C@H]2[C@@H]([C@H]1C(=O)N[C@H](C#N)CC1Cc3ccccc3NC1=O)[C@H]1C=C[C@@H]2C1 (stereo partly drawn) [Example 29, (1S,3aR,4S,7R,7aS)—N-((1S)-1-cyano-2-(2-oxo-1,2,3,4-tetrahydroquinolin-3-yl)ethyl)-2-((S)-3,3-dimethyl-2-(2,2,2-trifluoroacetamido)butanoyl)-2,3,3a,4,7,7a-hexahydro-1H-4,7-methanoisoindole-1-carboxamide] | > 10 µM | > 7.00 | > 7.00 | > 7.00 | > 7.70 | < 5.00 | ≤ 5.00 | > 10 µM |  |
| CC(C)(C)[C@H](NC(=O)C(F)(F)F)C(=O)N1C[C@@H]2[C@@H]3CC[C@@H](C3)[C@@H]2[C@H]1C(=O)N[C@H](C#N)CC1Cc2ccccc2NC1=O (stereo partly drawn) [Example 31, (1S,3aR,4R,7S,7aS)—N-((1S)-1-cyano-2-(2-oxo-1,2,3,4-tetrahydroquinolin-3-yl)ethyl)-2-((S)-3,3-dimethyl-2-(2,2,2-trifluoroacetamido)butanoyl)octahydro-1H-4,7-methanoisoindole-1-carboxamide] | > 10 µM | 6.00 to 7.00 | 6.00 to 7.00 | > 7.00 | > 7.70 | < 5.00 | ≤ 5.00 | > 10 µM |  |
| CN1CCN(C(=O)N[C@@H](Cc2ccccc2)C(=O)N[C@H](/C=C/S(=O)(=O)c2ccccc2)CCc2ccccc2)CC1 [Example K117777] |  |  |  |  |  |  |  |  | antiviral effect (SARS-CoV-2; A549-ACE2 when TMPRSS2 was expressed (Steuten et al.)): abolished; inhibition of SARS-CoV-2 (SARS-CoV-2; VeroE6, A549-ACE2 and/or HeLa-ACE2 (Mellott et al.)): potent inhibition; inhibitory effect on the 3CLpro (3CLpro): lacks an inhibitory effect |
